Laboratory results as given in the supplement of paper PMC11451515.

What was measured:
Conditions in all cases: 48 h
SEM cells [1] = experiment: cell viability relative to DMSO control; higher = less cytotoxic
Outline: (§1)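 In 1536-well plates, 5 μl of leukemia cells were seeded per well: 500 cells/well for NOMO1 or SEM and 1000 cells/well for P12-Ichikawa. Each line had first been adapted for at least four passages in each medium. Library compounds in DMSO were pin-dosed at 11 threefold concentrations between 47 μM and 0.79 nM, and CellTiter-Glo One luminescence was read after 48 h at 37°C. Viability is a per-plate percentage relative to DMSO wells, with cell-free wells as background.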

P12-Ichikawa [2] = experiment: as above
Outline: as §1

NOMO1 [3] = experiment: as above
Outline: as §1

SEM cells [4] = experiment: AUC of viability dose-response curve (% viability x log10 dose units); higher = less sensitive
Outline: (§2)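 Over 48 h at 37°C, leukemia cells in 1536-well plates (500 or 1000 cells/well), adapted to each medium, received library compounds in DMSO at 11 threefold doses from 47 μM to 0.79 nM. CellTiter-Glo One luminescence, normalised per plate to DMSO and cell-free wells, was fitted by a four-parameter log-logistic function of log10 dose. The area under the curve was then integrated by trapezoidal rule, after scaling curves above full viability and removing those that failed quality control.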

P12-Ichikawa [5] = experiment: as above
Outline: as §2

NOMO1 [6] = experiment: as above
Outline: as §2

CCc1cc(/C(C)=N/OCc2ccc(C3CCCCC3)c(C(F)(F)F)c2)ccc1CN1CC(C(=O)O)C1
cell viability [%]
Conditions | NOMO1 [3] | P12-Ichikawa [2] | SEM cells [1]
HPLM + 10% dialyzed FBS, 0.000781 µM | 111 | 111 | 104
HPLM + 10% dialyzed FBS, 0.00234 µM | 133 | 110 | 117
HPLM + 10% dialyzed FBS, 0.00702 µM | 106 | 112 | 112
HPLM + 10% dialyzed FBS, 0.0211 µM | 108 | 119 | 109
HPLM + 10% dialyzed FBS, 0.0632 µM | 129 | 120 | 104
HPLM + 10% dialyzed FBS, 0.19 µM | 109 | 114 | 115
HPLM + 10% dialyzed FBS, 0.569 µM | 108 | 121 | 120
HPLM + 10% dialyzed FBS, 1.71 µM | 79.1 | 108 | 117
HPLM + 10% dialyzed FBS, 5.12 µM | 66.4 | 105 | 99.8
HPLM + 10% dialyzed FBS, 15.4 µM | 31.8 | 30.3 | 87.1
HPLM + 10% dialyzed FBS, 46.1 µM | 40.1 | 18.9 | 82.9
RPMI 5 mM glucose + 10% FBS, 0.000781 µM | 110 | 109 | 92
RPMI 5 mM glucose + 10% FBS, 0.00234 µM | 113 | 99 | 108
RPMI 5 mM glucose + 10% FBS, 0.00702 µM | 104 | 105 | 109
RPMI 5 mM glucose + 10% FBS, 0.0211 µM | 115 | 108 | 109
RPMI 5 mM glucose + 10% FBS, 0.0632 µM | 135 | 110 | 105
RPMI 5 mM glucose + 10% FBS, 0.19 µM | 115 | 106 | 109
RPMI 5 mM glucose + 10% FBS, 0.569 µM | 120 | 108 | 106
RPMI 5 mM glucose + 10% FBS, 1.71 µM | 107 | 107 | 99.9
RPMI 5 mM glucose + 10% FBS, 5.12 µM | 107 | 94.4 | 96.2
RPMI 5 mM glucose + 10% FBS, 15.4 µM | 26.8 | 22.5 | 82.2
RPMI 5 mM glucose + 10% FBS, 46.1 µM | 20.9 | 18.7 | 70.2
RPMI 5 mM glucose + 10% dialyzed FBS, 0.000781 µM | 99 | 111 | 114
RPMI 5 mM glucose + 10% dialyzed FBS, 0.00234 µM | 116 | 111 | 116
RPMI 5 mM glucose + 10% dialyzed FBS, 0.00702 µM | 117 | 116 | 125
RPMI 5 mM glucose + 10% dialyzed FBS, 0.0211 µM | 112 | 109 | 123
RPMI 5 mM glucose + 10% dialyzed FBS, 0.0632 µM | 119 | 109 | 126
RPMI 5 mM glucose + 10% dialyzed FBS, 0.19 µM | 114 | 116 | 124
RPMI 5 mM glucose + 10% dialyzed FBS, 0.569 µM | 115 | 114 | 137
RPMI 5 mM glucose + 10% dialyzed FBS, 1.71 µM | 103 | 106 | 132
RPMI 5 mM glucose + 10% dialyzed FBS, 5.12 µM | 103 | 100 | 118
RPMI 5 mM glucose + 10% dialyzed FBS, 15.4 µM | 26.6 | 20.7 | 106
RPMI 5 mM glucose + 10% dialyzed FBS, 46.1 µM | 29 | 18.6 | 94

AUC of viability dose-response curve
Conditions | NOMO1 [6] | P12-Ichikawa [5] | SEM cells [4]
HPLM + 10% dialyzed FBS | 385 | 418 | 455
RPMI 5 mM glucose + 10% FBS | 418 | 414 | 452
RPMI 5 mM glucose + 10% dialyzed FBS | 420 | 414 | 463
